Common to all, as to type: cell-based, mouse
For assay [1], the system named is Ocy454 cells. Put plainly: Immunoblotting of Ocy454 cell lysates (HDAC4/5, CRTC2, SIK2 phosphorylation and localisation).
Assay [2] deals with Ocy454 cells. Put plainly: cAMP radioimmunoassay. The settings on record: 20 minutes; FIG. 14B. On the procedure:
Cells, in 96 well plates, were treated with indicated ligands for 20 minutes at room temperature in the presence of the phosphodiesterase inhibitor 3-isobutyl-1-methylxanthine (IBMX, Sigma I5879, 2 mM). The medium was then removed and cells were lysed in 50 mM HCl and transferred to −80C. Thawed lysates were diluted 1:5 with dH2O, and an 10 μl aliquot was assessed for cAMP content by radioimmunoassay using ^125I-cAMP analog as a tracer and unlabeled cAMP to generate a standard curve.

In assay [3] the test system is Ocy454 cells. Put plainly: Gene expression in Ocy454 cells by RT-qPCR. The settings on record: FIG. 5E. For orientation: Quantitative PCR measures a nucleic acid by following its amplification.
The subject of assay [4] is Ocy454 cells. Put plainly: Gene expression in Ocy454 cells by RT-qPCR. The settings on record: 0.5 μM, 3.5 hours; FIG. 21. As to the method:
In FIG. 21, Ocy454 cells (osteocyte cell line, also known at 6-9 cells) were cultured at 37° C. for 2 weeks to permit osteocyte differentiation. The cells were then treated with the indicated compound (0.5 μM) for 3.5 hours, and gene expression was analyzed by RT-qPCR. SOST expression was reduced by the indicated compounds. RANKL expression was increased by the indicated compounds. […] Therefore, these changes in gene expression may be due to on-target effects of the indicated compound.
(§1) For all experiments, a single cell subclone of Ocy454 cells (17, 18) was used. Cells were passages in alpha-MEM supplemented with 10% heat-inactivated fetal bovine serum and 1% antibiotics (penicillin/streptomycin, Fungizone) at 33° C. with 5% CO2. Cells were plated at 50,000 cells/ml and allowed to reach confluency at 33° C. (typically in 2-3 days). At this point, cells were transferred to 37° C. for subsequent analysis. For immunoblotting, cells were always analyzed after culture at 37° C. for 7 days. For gene expression analysis, cells were analyzed after culture at 37° C. for 14 days. Mycoplasma contamination was ruled out by PCR. Cells were routinely assayed for SOST expression at 37° C. and examined for osteocytic morphology.
Total RNA was extracted from cultured cells using RNeasy (Qiagen, Venlo, Netherlands) following the manufacturer's instructions. For long bone RNA isolation, mice were sacrificed and both femurs were rapidly dissected on ice. Soft tissue was removed and epiphyses cut. Bone marrow cells were then removed by serial flushing with ice-cold PBS. TRIzol (Life Technologies) was added and sampled were frozen at −80C and then homogenized. RNA was then extracted per the manufacturer's instructions, and further purified on RNeasy microcolumns prior to cDNA synthesis. RNA with A260/280 ratio <1.7 was not used for downstream analysis. For cDNA synthesis, 1 μg RNA was used in synthesis reactions according to the instructions of the manufacturer (Primescript RT, Takara). SYBR Green-based qPCR detection was performed using FastStart Universal SYBR Green (Roche, Basel, Switzerland) on a StepOne Plus (Applied Biosystems, Carlsbad, CA) thermocycler.

The subject of assay [5] is Ocy454 cells. Put plainly: Immunoblotting of Ocy454 cell lysates (HDAC4/5, CRTC2, SIK2 phosphorylation and localisation). The settings on record: 10 uM, 90 minutes, compared to DMSO control; FIGS. 17 to 19. On the procedure: The Ocy454 osteocyte cell line was treated for 90 minutes with the indicated compound at 10 uM dose (FIG. 17). Phospho-HDAC4 S246 levels were monitored by immunoblotting (top band) compared to DMSO control.
as §1, with “morphology. […]” for “morphology.”
(In western blotting, separated proteins are transferred to a membrane and probed.)

Take `C=C1[C@@H](O)[C@@H]2O[C@]3(CC[C@H](/C=C/[C@@H](C)[C@@H]4CC(C)=C[C@@]5(O[C@H](C[C@@](C)(O)C(=O)O)CC[C@H]5O)O4)O3)CC[C@H]2O[C@@H]1[C@@H](O)C[C@H](C)[C@H]1O[C@@]2(CCCCO2)CC[C@H]1C` [okadaic acid, reference compound]: the “block of PTH-mediated decreased HDAC4/5 phosphorylation or SOST suppression” value in the assay with Ocy454 cells [1] (okadaic acid 300 nM plus PTH, FIGS. 13B and 13C) is given as “did not block PTH-mediated decreased HDAC4/5 phosphorylation or SOST suppression”.
For `COc1ccc(N2C(=O)N(c3c(C)cccc3C)Cc3cnc(Nc4ccc(N5CCN(C)CC5)c(OC)c4)nc32)c(OC)c1` [YKL-04-114], in the assay on Ocy454 cells [2], the cAMP levels result is given as “without increasing cAMP levels”. In the assay with Ocy454 cells [1] (60 minutes, FIG. 5C), the “dose of optimal efficacy at the level of HDAC4/5 dephosphorylation” value was approximately 1 µM. Further, in the assay on Ocy454 cells [1] (FIGS. 5B and 5C), the HDAC4/5 phosphorylation entry was “rapid, dose-dependent decreases in HDAC4/5 phosphorylation”. Further, the “dose of optimal efficacy at the level of gene expression” value with Ocy454 cells [3] (4 hours) was approximately 0.5 µM. For the same compound, in the assay on Ocy454 cells [3], the RANKL expression entry is “RANKL up-regulation”; the SOST expression entry is “rapid and potent SOST suppression”. In the assay with Ocy454 cells [4], the RANKL expression result is “most active in these experiments at reducing SOST and increasing RANKL”; the SOST expression result was “most active in these experiments at reducing SOST”. The “Phospho-HDAC4 S246 levels” value with Ocy454 cells [5] is on record as “showed the most clear results across multiple replicates”.

The values above are taken from patent US12121521B2, “Uses of salt-inducible kinase (SIK) inhibitors for treating osteoporosis” (The General Hospital Corporation, priority 2016, dated 2024).
